Data as given in patent publication US7935722B2 (Eli Lilly and Company, priority 2005, dated 2011).
Like-named read-outs stand apart in the source and are kept apart here.

Assays:
[1] = target: T1, human androgen receptor (AR) (Homo sapiens, UniProt P10275); experiment: C2C12 AR/ARE reporter assay; format: cell-based
T1 construct: expressed in transfected cells; host or cells: mouse myoblast C2C12 cells, transiently co-transfected
T1 sequence (P10275 1-920): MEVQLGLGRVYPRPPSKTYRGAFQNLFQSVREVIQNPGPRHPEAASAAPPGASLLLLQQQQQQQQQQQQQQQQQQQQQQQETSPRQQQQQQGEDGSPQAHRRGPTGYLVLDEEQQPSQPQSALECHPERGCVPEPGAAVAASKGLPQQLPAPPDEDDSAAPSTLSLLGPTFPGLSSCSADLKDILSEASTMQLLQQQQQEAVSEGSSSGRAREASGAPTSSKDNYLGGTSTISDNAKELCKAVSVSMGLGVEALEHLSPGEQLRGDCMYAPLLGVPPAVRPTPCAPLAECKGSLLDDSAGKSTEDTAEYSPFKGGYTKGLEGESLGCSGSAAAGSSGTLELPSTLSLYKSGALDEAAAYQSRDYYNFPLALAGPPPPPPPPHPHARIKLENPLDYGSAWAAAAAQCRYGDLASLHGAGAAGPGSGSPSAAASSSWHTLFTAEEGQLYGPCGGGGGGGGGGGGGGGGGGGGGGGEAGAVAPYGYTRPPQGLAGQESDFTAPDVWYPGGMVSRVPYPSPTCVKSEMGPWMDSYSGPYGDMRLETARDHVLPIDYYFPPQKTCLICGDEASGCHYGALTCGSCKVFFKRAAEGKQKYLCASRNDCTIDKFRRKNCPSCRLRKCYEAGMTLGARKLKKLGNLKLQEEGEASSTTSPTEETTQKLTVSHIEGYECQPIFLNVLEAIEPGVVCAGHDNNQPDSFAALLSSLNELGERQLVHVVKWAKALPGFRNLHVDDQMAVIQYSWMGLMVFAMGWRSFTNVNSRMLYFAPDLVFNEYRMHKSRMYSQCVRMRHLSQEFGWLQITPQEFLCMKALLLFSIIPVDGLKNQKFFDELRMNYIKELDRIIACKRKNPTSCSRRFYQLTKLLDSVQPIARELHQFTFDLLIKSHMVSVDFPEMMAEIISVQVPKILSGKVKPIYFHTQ
Experimental: As an indicator of agonist activity in muscle tissue, the C2C12 AR/ARE reporter assay is performed. Briefly, mouse myoblast C2C12 cells are co-transfected using FuGENE™. […] Cells are transfected in T150 cm^2 flasks in DMEM media with 4% or 10% Fetal Bovine Serum […]. After a 5 hour incubation, transfected cells are trypsinized, plated in 96 well dishes in DMEM media containing 10% charcoal-stripped FBS, incubated for 2 h and then exposed to various concentrations of test compounds ranging from about 0.01 nM to 10 μM. After 48 h of incubations with compounds, cells are lysed and luciferase activity is determined using standard techniques. Data is fit to a 4 parameter-fit logistics to determine EC50 values. The % efficacy is determined versus maximum stimulation obtained with 10 nM methyltrienolone. […]

[2] = target: T2, human AR (androgen receptor) (Homo sapiens, UniProt P10275); experiment: Steroid hormone nuclear receptor binding assay, AR binding
T2 construct: expressed in transfected cells; host or cells: 293 cells (293-AR lysate)
T2 sequence (P10275 1-920): T1 sequence (P10275 1-920)
Experimental: Cell lysates from 293 cells overexpressing human GR (glucocorticoid receptor), AR (androgen receptor), MR (mineralocorticoid receptor) or PR (progesterone receptor) are used for competition binding assays to determine Ki values for test compounds. […] Competing compounds are added at various concentrations ranging from about 0.01 nM to 10 μM. Non-specific binding is determined in the presence of 500 nM dexamethasone for GR binding, 500 nM aldosterone for MR binding, or 500 nM methyltrienolone for AR and PR binding. The binding reaction (140 μl) is incubated for overnight at 4° C., then 70 μl of cold charcoal-dextran buffer (containing per 50 ml of assay buffer, 0.75 g of charcoal and 0.25 g of dextran) is added to each reaction. Plates are mixed 8 minutes on an orbital shaker at 4° C. Plates are then centrifuged at 3,000 rpm at 4° C. for 10 minutes. An aliquot of 120 μl of the mix is transferred to another 96-well plate and 175 μl of Wallac Optiphase “Hisafe 3” scintillation fluid is added to each well. Plates are sealed and shaken vigorously on an orbital shaker. After an incubation of 2 hrs, plates are read in a Wallac Microbeta counter. […] The Kd for ^3H-dexamethasone for GR binding, ^3H-methyltrienolone for AR binding, ^3H-aldosterone for MR binding, or ^3H-methyltrienolone for PR binding, is determined by saturation binding. The IC50 values for test compounds are converted to Ki using Cheng-Prusoff equation and the Kd determined by saturation binding assay. […]

[3] = C2C12 AR/ARE reporter assay, average of n trials, read-out: C2C12 % Efficacy
[4] = C2C12 AR/ARE reporter assay, average of n trials, read-out: C2C12 EC50
[5] = average of n trials, read-out: AR binding Ki
[6] = C2C12, read-out: C2C12 % Efficacy

| SMILES | Emax [1, 3] [%] | EC50 [1, 4] [nM] | Ki [2, 5] [nM] | EC50 [1] [nM] | Emax [1, 6] [%] | Ki [2] [nM] | C2C12 % Efficacy ([1]; C2C12 AR/ARE reporter assay, average of n trials) [%] |
| --- | --- | --- | --- | --- | --- | --- | --- |
| CC(C)C(=O)NC1CCc2c(c3cc(C#N)cc(Cl)c3n2Cc2cccc(F)c2)C1 (stereo not drawn) [Example 119, N-[8-Chloro-6-cyano-9-(3-fluoro-benzyl)-2,3,4,9-tetrahydro-1H-carbazol-3-yl]-isobutyramide] | 99.1 | 34.2 | 7.3 |  |  |  |  |
| CC(C)C(=O)NC1CCc2c(c3cc(C(=O)C(F)(F)F)ccc3n2Cc2cccc(F)c2)C1 (stereo not drawn) [Example 210, N-[9-(3-Fluoro-benzyl)-6-(2,2,2-trifluoro-acetyl)-2,3,4,9-tetrahydro-1H-carbazol-3-yl]-isobutyramide] |  |  |  | 17.6 | 71.2 | 15.5 |  |
| CC(C)C(=O)NC1CCc2c(c3cc(N(C)C)ccc3n2Cc2cccc(F)c2)C1 (stereo not drawn) [Example 62, N-[6-Dimethylamino-9-(3-fluoro-benzyl)-2,3,4,9-tetrahydro-1H-carbazol-3-yl]-isobutyramide] |  |  |  | 369 | 56.1 | 110 |  |
| CC(C)C(=O)N[C@@H]1CCc2c(c3cc(-c4nnc(N)s4)ccc3n2Cc2cccc(F)c2)C1 [Example 126, (R)-N-[6-(5-Amino[1,3,4]thiadiazol-2-yl)-9-(3-fluorobenzyl)-2,3,4,9-tetrahydro-1H-carbazol-3-yl]isobutyramide] |  |  |  | 31.3 | 87 | 19 |  |
| Cc1cccc(Cn2c3c(c4cc(Cl)ccc42)CC(NC(=O)C(C)C)CC3)c1 (stereo not drawn) [Example 82] |  |  |  | 37.1 | 87.3 | 6.1 |  |
| CC(C)C(=O)NC1CCc2c(c3cc(C#N)ccc3n2Cc2ccccc2NS(C)(=O)=O)C1 (stereo not drawn) [Example 113, N-[6-Cyano-9-(2-methanesulfonylamino-benzyl)-2,3,4,9-tetrahydro-1H-carbazol-3-yl]-isobutyramide] |  |  |  | 35.8 | 97.7 | 21.4 |  |
| CC(C)C(=O)NC1CCc2c(c3cc(-c4cccnn4)ccc3n2Cc2cccc(F)c2)C1 (stereo not drawn) [Example 138] | 86.8 | 31.1 | 47.3 |  |  |  |  |
| O=C(NC1CCc2c(c3cc(Br)ccc3n2Cc2cccc(F)c2)C1)C1CC1 (stereo not drawn) [Example 170, Cyclopropanecarboxylic acid [6-bromo-9-(3-fluoro-benzyl)-2,3,4,9-tetrahydro-1H-carbazol-3-yl]-amide] |  |  |  | 22.4 | 67.2 | 5.9 |  |
| COc1ccc2c(c1)c1c(n2Cc2ccccc2)CCC(NC(=O)C2CC2)C1 (stereo not drawn) [Example 68, Cyclopropanecarboxylic acid (9-benzyl-6-methoxy-2,3,4,9-tetrahydro-1H-carbazol-3-yl)-amide] |  |  |  | 40.8 | 98 | 46.2 |  |
| Cc1nc(-c2ccc3c(c2)c2c(n3Cc3cccc(F)c3)CC[C@@H](NC(=O)C(C)C)C2)sc1C [Example 129] |  |  |  | 73.6 | 65.5 | 196 |  |
| COc1ccc2c(c1)c1c(n2Cc2cccc(F)c2)CCC(NC(=O)C(C)C)C1 (stereo not drawn) [Example 79, N-[9-(3-fluoro-benzyl)-methoxy-2,3,4,9-tetrahydro-1H-carbazol-3-yl]-isobutyramide] |  | 16.4 | 28.2 |  |  |  | 85.7 |
| COC(=O)N[C@@H]1CCc2c(c3cc(C#N)ccc3n2Cc2ccccn2)C1 [Example 185, (6(R)-Cyano-9-pyridin-2-ylmethyl-2,3,4,9-tetrahydro-1H-carbazol-3-yl)-carbamic acid methyl ester] | 77.5 | 76 | 23.3 |  |  |  |  |
| CC(C)C(=O)NC1CCc2c(c3cc(-c4cnc(N)s4)ccc3n2Cc2cccc(F)c2)C1 (stereo not drawn) [Example 140] |  |  |  | 44 | 74.6 | 29 |  |
| Cc1nc(Cn2c3c(c4cc(C#N)ccc42)CC(NC(=O)C(C)C)CC3)cs1 (stereo not drawn) [Example 150, N-[6-Cyano-9-(2-methyl-thiazol-4-ylmethyl)-2,3,4,9-tetrahydro-1H-carbazol-3-yl]-isobutyramide] |  |  |  | 98.8 | 91.3 | 19.6 |  |
| Cc1nc(Cn2c3c(c4cc(C=O)ccc42)C[C@H](NC(=O)C(C)C)CC3)cs1 [Example 211, (R)-N-[6-Formyl-9-(2-methyl-thiazol-4-ylmethyl)-2,3,4,9-tetrahydro-1H-carbazol-3-yl]-isobutyramide] |  |  |  | 86.7 | 88.4 | 43.7 |  |
| CN(C)S(=O)(=O)NC1CCc2c(c3cc(C#N)ccc3n2Cc2cccc(F)c2)C1 (stereo not drawn) [Example 213, N-[6-Cyano-9-(3-fluoro-benzyl)-2,3,4,9-tetrahydro-1H-carbazol-3-yl]-N′,N′-dimethylmethanesulfamide] |  |  |  | 40.2 | 95.4 | 3.2 |  |
| O=C(N[C@@H]1CCc2c(c3cc(/C=N/O)ccc3n2Cc2cccc(F)c2)C1)C1CC1 [Example 203, (R)-Cyclopropanecarboxylic acid[9-(3-fluoro-benzyl)-6-(hydroxyimino-methyl)-2,3,4,9-tetrahydro-1H-carbazol-3-yl]-amide] | 73.1 | 20.2 | 12.3 |  |  |  |  |
| O=Cc1ccc2c(c1)c1c(n2Cc2ccccn2)CCC(NC(=O)C2CC2)C1 (stereo not drawn) [Example 206] |  |  |  | 206 | 96.1 | 99.2 |  |
| CNC(=O)NC1CCc2c(c3cc(C#N)ccc3n2Cc2cccc(F)c2)C1 (stereo not drawn) [Example 179, 1-[6-Cyano-9-(3-fluorobenzyl)-2,3,4,9-tetrahydro-1H-carbazol-3-yl]-3-methyl-urea] | 114 | 24.1 | 14.6 |  |  |  |  |
| CC(C)C(=O)NC1CCc2c(c3cc(C#N)ccc3n2Cc2ccsc2)C1 (stereo not drawn) [Example 157, N-(6-Cyano-9-thiophen-3-ylmethyl-2,3,4,9-tetrahydro-1H-carbazol-3-yl)-isobutyramide] | 72.3 | 3 | 5.2 |  |  |  |  |
| CC(C)C(=O)NC1CCc2c(c3cc(Cl)ccc3n2Cc2ccccc2O)C1 (stereo not drawn) [Example 101, N-[6-Chloro-9-(2-hydroxy-benzyl)-2,3,4,9-tetrahydro-1H-carbazol-3-yl]-isobutyramide] |  |  |  | 4.1 | 65.3 | 5.2 |  |
| CC(C)C(=O)NC1CCc2c(c3cc(-c4ccncc4)ccc3n2Cc2cccc(F)c2)C1 (stereo not drawn) [Example 134] | 37.6 | 365 | 380 |  |  |  |  |
| Cc1nc(Cn2c3c(c4cc(C#N)ccc42)C[C@H](NC(=O)C(C)C)CC3)cs1 [Example 151, (R)-N-[6-cyano-9-(2-methyl-thiazol-4-ylmethyl)-2,3,4,9-tetrahydro-1H-carbazol-3-yl]-isobutyramide] |  |  |  | 30.4 | 85.6 | 12.4 |  |
| CC(C)C(=O)NC1CCc2c(c3cc([N+](=O)[O-])ccc3n2Cc2cccc(F)c2)C1 (stereo not drawn) [Example 61, N-[9-(3-Fluorobenzyl)-6-nitro-2,3,4,9-tetrahydro-1H-carbazol-3-yl]isobutyramide] |  |  |  | 3.6 | 83.2 | 2.3 |  |
